Laboratory results: patent publication US11351140B2, “Resolvin mimetic antibodies and uses thereof” (J. Craig Venter Institute, Inc., priority 2017, dated 2022)

T1: ERV-1 receptor (CHO-ERV-1 positive cells) (Homo sapiens, UniProt Q99788)
T1 construct: host or cells: CHO-K1/CMKLR1/Ga15 (CHO ERV1+)
T1 sequence (Q99788 1-373): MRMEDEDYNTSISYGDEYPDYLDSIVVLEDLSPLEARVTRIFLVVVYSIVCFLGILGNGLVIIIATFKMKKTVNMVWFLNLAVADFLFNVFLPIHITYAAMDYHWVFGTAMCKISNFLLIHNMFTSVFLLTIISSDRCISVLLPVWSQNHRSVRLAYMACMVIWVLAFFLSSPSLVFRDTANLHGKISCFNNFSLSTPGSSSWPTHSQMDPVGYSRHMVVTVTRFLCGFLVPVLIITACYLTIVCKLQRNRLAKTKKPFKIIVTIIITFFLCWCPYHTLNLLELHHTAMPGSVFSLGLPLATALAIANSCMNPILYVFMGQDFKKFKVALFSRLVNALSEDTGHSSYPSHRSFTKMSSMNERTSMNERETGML

B1: C4: resolvimab, anti-ERV-1 monoclonal antibody; VH SEQ ID NO: 14, VK SEQ ID NO: 16 (antibody, V domains shown)
VH: EVKLEESGAELVMPGASVKLSCKASGYTFTSYWMHWVKQRPGQGLEWVAEIDPSDSYTNYNQKFKGKATLTVDKSSSTAYMQLSSLTSEDSAVYYCARDGDILTTVVAKGFVYWGQGTLV
VL: LSLPVSLGDQASISCRSSQTIVHSNGNTYLEWYLQKPGQSPKLLIYKVSNRFSGVPDRFSGSGSGTDFTLKISRVEAEDLGVYYCFQGSHVPWTFGGGTKLEIK
modifications: Immunoglobulin VH Region; Immunoglobulin VL(K) region

What was measured:
[1] = target: T1, ERV-1 receptor (CHO-ERV-1 positive cells); assay: Intracellular calcium signaling (Calcium5 FLIPR) in CHO ERV1+ cells; format: cell-based; settings: 1, 10, 100 nM
Experimental: To investigate calcium mobilization, cells were transferred to a 96-well plate at density of 60,000 cells per well in 80 μl of growth medium 18 hours prior to the day of experiment and maintained at 37° C./5% CO2.
After aspiration of the media, cells were labeled with the fluorescent probe, Calcium5 FLIPR (Medical Devices). After agonist treatment, detection of changes in fluorescence were detected by microplate reader and expressed as change in relative fluorescence units (ΔRFU).
To investigate calcium mobilization, CHO ERV1+ cells were transferred to a 96-well plate at density of 60,000 cells per well in 80 μl of growth medium 18 hours prior to the day of experiment and maintained at 37° C./5% CO2. After aspiration of the media, cells were labeled with the fluorescent probe, Calcium5 FLIPR (Medical Devices). After agonist treatment, detection of changes in fluorescence were detected by microplate reader and expressed as change in relative fluorescence units (ARFU).
To determine whether the immune complexes between ERV-1 receptor and various anti-ERV-1 antibodies permit the bound immune complex to interact with ERV-1 cellular receptor functions, an in vitro assay was devised. To that end, calcium intracellular signaling was measured upon agonist ligand binding. […] After 20 seconds, calcium mobilization was measured through fluorescence (FIG. 15). […]

ERV1tg mice = assay: Zymosan-induced peritonitis, peritoneal lavage cells by flow cytometry; format: in vivo; settings: injected together with zymosan; 12 hours of inflammation
Experimental: Cells were extracted from peritoneal exudates collected after 12 hours of intraperitoneal injection of zymosan-A (1 mg/ml in PBS). Isolated cells were incubated with anti-Fc receptor (BD) blocking antibody (5 μg/ml×106 cells, 15 min) and then labeled with anti-human ERV1 alexafluor 488-conjugated antibody (10 μg/ml×106 cells, 1 hour at RT) or anti-IgG alexafluor 488 (isotype control, R&D Systems). Expression of ERV1 on neutrophils was evaluated by immunofluorescence and quantified by flow cytometry. ERV-1, […] positive monocytes were stained with PE-conjugated anti-mouse Arg-1 and FITC-conjugated anti-mouse EGR-(10 μg/ml×106 cells, 1 hour at RT) (BD Biosciences).
Peritonitis was initiated by zymosan particle injections […] to ERV1tg mice peritoneal tissues. It had been previously established that Resolvin-E1 could affect inflammation-related responses in an ERV-1 dependent manner in vivo in cells derived from diabetic subjects (Freire, M. et al., J. Immunol. 198(2):718-728 (2017)). To further understand the biological response induced by resolvimabs, purified clones were injected together with the zymosan stimuli (FIGS. 9A-D). […] We have looked if these compound would influence the phenotype of neutrophils and monocytes after 12 hours of inflammation in vivo.

Molecule	agonist functions (calcium intracellular signaling) [1]	inflammatory infiltrate (flow cytometry quantification) (ERV1tg mice)
CC[C@@H](O)/C=C/C=C\C[C@@H](O)/C=C/C=C/C=C\[C@@H](O)CCCC(=O)O [resolvinE-1, resolvin E1]	found	–
B1	–	decrease
